Tests used:
Test in all cases: Cell growth inhibitory effect, cell counting kit 8, 6 days
Assay type in all cases: cell-based
[1] = test system: HuH28, a human liver cancer cell line; settings: 144 h, HuH28 cells, 6 days incubation
How it was run: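 HuH28 human liver cancer cells (JCRB0426) were maintained below 80% density in RPMI1640 with 10% FBS and grown in 96-well flat-bottom plates. Test compound was serially diluted to 5 times final concentration and added with DMSO at 0.1%, then incubated for 6 days at 37° C in 5% CO2. Viable cells were counted with cell counting kit 8 at dosing and on day 6, using a 2 or 3 hour color reaction and absorbance at 450 nm. GI50 was derived from growth inhibition rates.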

[2] = test system: NCI-H226 cells, a human mesothelioma cell line; settings: 144 h, 6 days incubation, group less than 100 nmol/L
How it was run: (§1)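 Cells grown in RPMI1640 with 10% FBS, plated at 500 cells/well (NCI-H226, NCI-H322) and incubated one day before serially diluted compound was added (0.1% DMSO final). After 6 days at 37 °C, 5% CO2, CCK-8 colour developed 2–3 h and A450 read; GI50 derived from growth inhibition rate.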

[3] = test system: NCI-H322 cells, a human lung cancer cell line; settings: 144 h, 6 days incubation
How it was run: as §1

Row | GI50 [1] [nM] | GI50 [2] [nM] | GI50 [3] [nM] | SMILES
1 | < 3000 | < 100 | < 1000 | C=CC(=O)N[C@H]1CC[C@@H](Oc2ccc(C(F)(F)F)cc2)c2nc(C3CC3)ccc21 (relative stereo) [Compound 185, cis-N-[2-Cyclopropyl-8-{4-(trifluoromethyl)phenoxy}-5,6,7,8-tetrahydroquinolin-5-yl]acrylamide]
2 | < 3000 | < 100 | < 1000 | C=CC(=O)NCc1cc(Oc2ccnc(C(F)(F)F)c2)nc2ccccc12 [Compound 151, N-{(2-[{2-(Trifluoromethyl)pyridin-4-yl}oxy]quinolin-4-yl)methyl}acrylamide]
3 | < 3000 | < 100 | < 1000 | C=CC(=O)NCc1ccc(Oc2ccc(C(F)(F)F)cc2)c2ncc(C)cc12 [Compound 199, N-([3-Methyl-8-{4-(trifluoromethyl)phenoxy}quinolin-5-yl]methyl)acrylamide]
4 | < 3000 | < 100 | < 1000 | C=CC(=O)N[C@H]1CC[C@@H](Oc2ccc(C(F)(F)F)cn2)c2nc(Cl)ccc21 (relative stereo) [Compound 189, cis-N-(2-Chloro-8-[{5-(trifluoromethyl)pyridin-2-yl}oxy]-5,6,7,8-tetrahydroquinolin-5-yl)acrylamide]
5 | < 3000 | < 100 | < 1000 | C=CC(=O)N[C@H]1CC[C@@H](Oc2ccc(C(F)(F)F)cc2)c2nc(OC)ccc21 (relative stereo) [Compound 179, cis-N-[2-Methoxy-8-{4-(trifluoromethyl)phenoxy}-5,6,7,8-tetrahydroquinolin-5-yl]acrylamide]
6 | < 3000 | < 100 | < 1000 | C=CC(=O)Nc1cnc(Oc2ccc(Cl)cc2)c2ncccc12 [Compound 226, N-{8-(4-chlorophenoxy)-1,7-naphthyridin-5-yl}acrylamide]
7 | < 3000 | < 100 | < 1000 | C=CC(=O)NCc1ncc(Oc2ccc(C(F)(F)F)cc2)c2ccccc12 [Compound 224, N-([4-{4-(Trifluorophenyl)phenoxy}isoquinolin-1-yl]methyl)acrylamide]
8 | < 3000 | < 100 | < 1000 | C=CC(=O)NCc1ccc(Sc2ccc(C(F)(F)F)cc2)c2ncccc12 [Compound 202, N-{(8-[{4-(Trifluoromethyl)phenyl}thio]quinolin-5-yl)methyl}acrylamide]
9 | < 3000 | < 100 | < 1000 | C=CC(=O)NCc1ccc(Oc2ccc(C(F)(F)F)cc2)c2nc(Cl)ccc12 [Compound 139, N-([2-Chloro-8-{4-(trifluoromethyl)phenoxy}quinolin-5-yl]methyl)acrylamide]
10 | < 3000 | < 100 | < 1000 | C=CC(=O)Nc1cncc(Oc2cncc(C(F)(F)F)c2)c1 [Compound 107, N-(5-[{5-(Trifluoromethyl)pyridin-3-yl}oxy]pyridin-3-yl)acrylamide]
11 | < 3000 | < 100 | < 1000 | C=CC(=O)Nc1ccc(Oc2ccc(Cl)cc2)c2nc(C)ccc12 [Compound 117, N-{8-(4-Chlorophenoxy)-2-methylquinolin-5-yl}acrylamide]
12 | < 3000 | < 100 | < 1000 | C=CC(=O)NCc1ccc(Oc2ccc(C(F)(F)F)cc2)c2nccc(C)c12 [Compound 201, N-([4-Methyl-8-{4-(trifluoromethyl)phenoxy}quinolin-5-yl]methyl)acrylamide]
13 | < 3000 | < 100 | < 1000 | C=CC(=O)NCc1cc(Oc2ccnc(Cl)c2)nc2ccccc12 [Compound 150, N-([2-{(2-Chloropyridin-4-yl)oxy}quinolin-4-yl]methyl)acrylamide]
14 | < 3000 | < 100 | < 1000 | C=CC(=O)Nc1ccc(Oc2cccc(Cl)c2)c2ncccc12 [Compound 114, N-{8-(3-Chlorophenoxy)quinolin-5-yl}acrylamide]

Row | SMILES | GI50 [1] [nM] | GI50 [2] [nM] | GI50 [3] [nM]
15 | C=CC(=O)NC1COc2c(cccc2Oc2cnc(C(F)(F)F)nc2)C1 (stereo not drawn) [Compound 155, N-(8-[{2-(Trifluoromethyl)pyrimidin-5-yl}oxy]chroman-3-yl)acrylamide] | < 3000 | < 100 | < 1000
